“Also recorded” adds a separate entry of the source.
Key:
HSV-1 = HSV-1 replication inhibition assay in Vero cells; format: cell-based, herpes simplex virus 1; details: Human alphaherpesvirus 1, 24 h; 5 μM, Vero cells; read-out: HSV-1 suppression (log10 at 5 μM), class symbol
HBV replication = HBV replication inhibition assay in HepDES19 cells (strand-preferential q-PCR); format: cell-based, Hepatitis B virus

Compound: O=C1c2ccccc2C(=O)N1O [Compound 138]
- log reduction at 5 µM (HSV-1): < 1
- HBV replication inhibition / activity (HBV replication; HepDES19 cells): does not inhibit HBV replication; also recorded: inactive
- HBV replication inhibition (qualitative) (HBV replication; Table 3, qualitative screen at 20 μM): − (No inhibition detected at 20 μM)

— patent publication US20190070165A1, “N-HYDROXYISOQUINOLINEDIONE INHIBITORS OF HBV REPLICATION” (Saint Louis University, priority 2016, published 2019)
